Assay: recombinant UMI read abundance after kanamycin selection (control-corrected) (log10(CPM+1)); higher = more efficient recombination; extreme values may be limits of the assay; sequences stand for … in AGTGCAGAGAAAATCGGCCAGTTTTCTCTGCCTGCAGTCCGCATGCCGTGGGACCCCTTGGGTTCTAACCTGTTGCCTAGATTTATGCAGCGGACTGCCTTTCTCCCAAAGTGATAAACCGG…AGGTTGGTTTCACT; site = the 11-nt donor
Method in brief: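 Counts of recombinant UMIs were reported as log10(CPM+1). Before that, they were converted to CPM, averaged over replicates and scaled using control-derived factors. They came from PCR across the donor–target junction after Escherichia coli carrying the pair library and target plasmid was plated on IPTG (0.07 mM) plus kanamycin, or unselected, in two replicates each.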
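Also: IS621 bridge recombinase in Escherichia coli cells against a fixed T5 target plasmid.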

Sequence	recombinant UMI read abundance (log10)
TAAAATACATGGACCGGTTTTCCCGGTAATCCGTATTTGCA (site TATAATACTTG)	0.614
TAAACCGCATGGACCGGTTTTCCCGGTAATCCGTATTTGCG (site TAAACCGCTCG)	1.29
TAAAGACCATGGACCGGTTTTCCCGGTAATCCGTATTTGTA (site TAAAGACCTTA)	0.299
TAAAGACCATGGACCGGTTTTCCCGGTAATCCGTATTTGTA (site TAAAGCCCTTA)	0.624
TAAAGACCATGGACCGGTTTTCCCGGTAATCCGTATTTGTA (site TAAAGGCCTTA)	0.257
TAAAGACCATGGACCGGTTTTCCCGGTAATCCGTATTTGTA (site TAAAGTCCTTA)	0.166
TAAAGAGCATGGACCGGTTTTCCCGGTAATCCGTATTTGGG (site TAAAGAGCTCC)	0.356
TAAAGAGCATGGACCGGTTTTCCCGGTAATCCGTATTTGGG (site TAACGAGCTCC)	0.0368
TAAAGAGCATGGACCGGTTTTCCCGGTAATCCGTATTTGGG (site TAAGGAGCTCC)	0.0278
TAAAGAGCATGGACCGGTTTTCCCGGTAATCCGTATTTGGG (site TAATGAGCTCC)	0.00709
TAAAGCTCATGGACCGGTTTTCCCGGTAATCCGTATTTGTT (site TAAAGCTCTAA)	1.48
TAAAGTCCATGGACCGGTTTTCCCGGTAATCCGTATTTGGA (site TAAAGTCCTTA)	0.0112
TAAAGTCCATGGACCGGTTTTCCCGGTAATCCGTATTTGGA (site TAAAGTCCTTC)	0.231
TAAAGTCCATGGACCGGTTTTCCCGGTAATCCGTATTTGGA (site TAAAGTCCTTG)	0
TAAAGTCCATGGACCGGTTTTCCCGGTAATCCGTATTTGGA (site TAAAGTCCTTT)	0.978
TAAAGTCCATGGACCGGTTTTCCCGGTAATCCGTATTTGTC (site TAAAGTCCTAA)	0.0955

Sequence	recombinant UMI read abundance (log10)
TAAAGTCCATGGACCGGTTTTCCCGGTAATCCGTATTTGTC (site TAAAGTCCTCA)	0.00821
TAAAGTCCATGGACCGGTTTTCCCGGTAATCCGTATTTGTC (site TAAAGTCCTGA)	0.327
TAAAGTCCATGGACCGGTTTTCCCGGTAATCCGTATTTGTC (site TAAAGTCCTTA)	0.00692
TAAAGTCCATGGACCGGTTTTCCCGGTAATCCGTATTTGTT (site TAAAGTCCTAA)	0.293
TAAAGTCCATGGACCGGTTTTCCCGGTAATCCGTATTTGTT (site TAAAGTCCTCA)	0.0132
TAAAGTCCATGGACCGGTTTTCCCGGTAATCCGTATTTGTT (site TAAAGTCCTGA)	0
TAAAGTCCATGGACCGGTTTTCCCGGTAATCCGTATTTGTT (site TAAAGTCCTTA)	0
TAAAGTTCATGGACCGGTTTTCCCGGTAATCCGTATTTGTA (site TAAAGTACTTA)	0.0179
TAAAGTTCATGGACCGGTTTTCCCGGTAATCCGTATTTGTA (site TAAAGTCCTTA)	0.153
TAAAGTTCATGGACCGGTTTTCCCGGTAATCCGTATTTGTA (site TAAAGTGCTTA)	0.00586
TAAAGTTCATGGACCGGTTTTCCCGGTAATCCGTATTTGTA (site TAAAGTTCTTA)	1.59
TAAATAACATGGACCGGTTTTCCCGGTAATCCGTATTTGCT (site TAAATAACTAG)	0
TAAATACCATGGACCGGTTTTCCCGGTAATCCGTATTTGCG (site TAAATACCTCG)	0
TAAATGCCATGGACCGGTTTTCCCGGTAATCCGTATTTGGA (site TAAATGCCTTC)	0.2
TAACACGCATGGACCGGTTTTCCCGGTAATCCGTATTTGAG (site TAACACGCTCT)	1.48
TAACAGACATGGACCGGTTTTCCCGGTAATCCGTATTTGGT (site TAACAGACTAC)	0.99

From the supplement of paper PMC11208160
